The assay concerns the target T1, human GPR120 (Homo sapiens, UniProt Q5NUL3).
T1 construct: expressed in transfected cells; host or cells: HEK293T, transient transfection with PEI
T1 sequence (Q5NUL3 1-361): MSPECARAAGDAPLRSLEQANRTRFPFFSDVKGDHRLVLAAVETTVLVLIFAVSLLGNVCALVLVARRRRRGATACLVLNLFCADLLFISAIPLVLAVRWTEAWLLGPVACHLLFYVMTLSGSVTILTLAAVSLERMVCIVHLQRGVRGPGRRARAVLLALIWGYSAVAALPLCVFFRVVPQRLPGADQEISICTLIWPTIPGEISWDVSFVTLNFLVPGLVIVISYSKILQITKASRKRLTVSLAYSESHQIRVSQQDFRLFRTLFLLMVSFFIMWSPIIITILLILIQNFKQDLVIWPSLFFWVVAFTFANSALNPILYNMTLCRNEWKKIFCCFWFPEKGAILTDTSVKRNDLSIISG
Put plainly: Human GPR120-β Arrestin 2 BRET agonist assay. In kind it is cell-based. The note with it: HEK293T cells transiently co-expressing hGPR120-eYFP and β-arrestin 2-RLuc; BRET normalised to DMSO (0%) and TUG-891 (100%); read-out: hGPR120 pEC50 (converted). The procedure:
pEC50 data was obtained by the following procedure:
Human GPR120-β Arrestin 2 Bio-Luminescence Resonance Energy Transfer (BRET) Agonist Assay Procedure
HEK293T cells were cultured in growth media composed of DMEM L-glutamine media supplemented with 10% (v:v) fetal bovine serum (FBS) and 1% (v:v) 10,000 units penicillin/10 mgml^−1 streptomycin at 37° C., 5% CO2. HEK293T cells transiently co-expressing human GPR120 […] and b-arrestin 2 were generated by transfection with plasmids encoding a construct of hGPR120 […] fused at its C terminal with enhanced yellow fluorescent protein (eYFP), and another encoding β-arrestin 2 fused to Renilla luciferase (RLuc), using Polyethylenimine (PEI) as the transfection reagent.
Transfected cells were cryopreserved in batches for consistency between replicate assays. Twenty-four hours post transfection, cells were harvested with non-enzymatic cell dissociation buffer and re-suspended in DMEM medium supplemented with 10% DMSO and 10% FBS before being transferred first to −80° C. overnight and then to liquid nitrogen for long-term storage. On the day prior to the assay, cells were thawed at 37° C. and re-suspended in growth media. A 96 well white opaque bottom microtitre plate was then seeded with 40,000 cells in a volume of 100 μl growth media per well and seeded plates were then incubated overnight at 37° C., 5% CO2. On the day of the BRET experiment, cells were washed twice with BRET assay buffer (Hanks balanced salt solution (HBSS) supplemented with 10 mM HEPES (pH 7.4)), then 80 μl per well of BRET assay buffer was added before the plate was incubated for 30 minutes at 37° C., 5% CO2. Then, Renilla luciferase substrate coelenterazine h (5 μM) was added to the cells and incubated at 37° C. for 10 minutes before the addition of GPR120 agonist (TUG-891) or test compound for a further 5 minutes at 37° C.
Bio-luminescence at λ 535 nm and λ 475 nm was then measured with a Pherastar FsX instrument, and the λ 535/λ 475 ratio of bio-luminescence was then used to calculate a BRET value. hGPR120 agonist potency values (pEC50) were calculated by normalising the BRET values to the DMSO vehicle (0% control) and TUG-891 (100% control) and then fitting the normalised data to a 3-parameter concentration-response curve.
Background: Bioluminescence resonance energy transfer reports proximity on the nanometre scale.

For the molecule `CC(Cc1ccc2c(c1)CCN(c1cc(OC(F)(F)F)ccc1F)C2)C(=O)O` (centres unmarked) [Compound 26, 3-(2-(2-Fluoro-5-(trifluoromethoxy)phenyl)-1,2,3,4-tetrahydroisoquinolin-6-yl)-2-methylpropanoic Acid], the EC50 is 0.0794 µM.
In the case of `CC(C)Oc1cccc(N2CCc3cc(CCC(=O)O)ccc3C2)c1` [Compound 28, 3-(2-(3-Isopropoxyphenyl)-1,2,3,4-tetrahydroisoquinolin-6-yl)propanoic Acid], the EC50 was 0.501 µM.
In the case of `COc1ccc(Cl)cc1N1CCc2cc(CCC(=O)O)ccc2C1` [Compound 29, 3-(2-(5-chloro-2-methoxyphenyl)-1,2,3,4-tetrahydroisoquinolin-6-yl)propanoic acid], the EC50 is 1 µM.
For the molecule `Cc1cc(C)cc(N2CCc3ccc(CCC(=O)O)cc3C2)c1` [Compound 30, 3-(2-(3,5-dimethylphenyl)-1,2,3,4-tetrahydroisoquinolin-7-yl)propanoic Acid], the EC50 is 1.58 µM.
Regarding `COc1cc(Cl)cc(N2CCc3ccc(CCC(=O)O)cc3C2)c1` [Compound 31, 3-(2-(3-chloro-5-methoxyphenyl)-1,2,3,4-tetrahydroisoquinolin-7-yl)propanoic acid], the EC50 was 2.51 µM.
As to `O=C(O)CCc1ccc2c(c1)CN(c1cc(OC(F)(F)F)ccc1F)CC2` [Compound 33], the EC50 was 1.26 µM.
Under `O=C(O)C1CC1c1ccc2c(c1)CCN(c1cc(OC(F)(F)F)ccc1F)C2` (centres unmarked) [Compound 35, 2-(2-(2-fluoro-5-(trifluoromethoxy)phenyl)-1,2,3,4-tetrahydroisoquinolin-6-yl)cyclopropane-1-carboxylic acid] stands 0.1 µM; under `O=C(O)C1CC1c1ccc2c(c1)CCN(c1cc(OC3CCC3)cc(F)c1F)C2` (centres unmarked) [Compound 36, 2-(2-(5-cyclobutoxy-2,3-difluorophenyl)-1,2,3,4-tetrahydroisoquinolin-6-yl)cyclopropane-1-carboxylic acid], 0.1 µM; under `O=C(O)C1CC1c1ccc2c(c1)CCN(c1nc(OC3CCC3)ccc1F)C2` (centres unmarked) [Compound 37, 2-(2-(6-cyclobutoxy-3-fluoropyridin-2-yl)-1,2,3,4-tetrahydroisoquinolin-6-yl)cyclopropane-1-carboxylic acid], 0.0398 µM.
`O=C(O)C1CC1c1ccc2c(c1)CCN(c1cccc(Oc3ccccc3)c1)C2` (centres unmarked) [Compound 38, 2-(2-(3-Phenoxyphenyl)-1,2,3,4-tetrahydroisoquinolin-6-yl)cyclopropanecarboxylic Acid]: the EC50 was 0.0631 µM.
`O=C(O)CCc1cc2c(cc1F)CN(c1cc(OC3CCC3)ccc1F)CC2` [Compound 39, 3-(2-(5-cyclobutoxy-2-fluorophenyl)-7-fluoro-1,2,3,4-tetrahydroisoquinolin-6-yl)propanoic Acid]: the EC50 was 0.0631 µM.
Under `O=C(O)CCc1cc(F)c2c(c1)CCN(c1cc(OC(F)(F)F)ccc1F)C2` [Compound 40, 3-(8-fluoro-2-(2-fluoro-5-(trfluoromethoxy)phenyl)-1,2,3,4-tetrahydroisoquinolin-6-yl)propanoic acid] stands 0.0316 µM.
With `O=C(O)CCc1cc(F)c2c(c1)CCN(c1cccc(Oc3ccccc3)c1)C2` [Compound 41, 3-(8-fluoro-2-(3-phenoxyphenyl)-1,2,3,4-tetrahydroisoquinolin-6-yl)propanoic acid], the EC50 is 0.0316 µM.
As for `O=C(O)CCc1cc2c(cc1F)CN(c1cc(F)cc(OC3CCC3)c1)CC2` [Compound 42, 3-(2-(3-Cyclobutoxy-5-fluorophenyl)-7-fluoro-1,2,3,4-tetrahydroisoquinolin-6-yl)propanoic Acid], the EC50 was 0.316 µM.
`O=C(O)CCc1ccc2c(c1)CCN(c1cc(Cl)cc(OC3CCC3)c1)C2` [Compound 43, 3-(2-(3-chloro-5-cyclobutoxyphenyl)-1,2,3,4-tetrahydroisoquinolin-6-yl)propanoic acid]: the EC50 is 0.02 µM.
For `O=C(O)CCc1ccc2c(c1)CCN(c1nc(OC3CCC3)c(F)cc1F)C2` [Compound 44, 3-(2-(6-Cyclobutoxy-3,5-difluoropyridin-2-yl)-1,2,3,4-tetrahydroisoquinolin-6-yl)propanoic Acid], the EC50 is 0.0251 µM.
Next, `O=C(O)CCc1ccc2c(c1)CCN(c1cc(OC(F)(F)F)ccc1F)CC2` [Compound 45, 3-(3-(2-fluoro-5-(trifluoromethoxy)phenyl)-2,3,4,5-tetrahydro-1H-benzo[d]azepin-7-yl)propanoic Acid]: 0.0251 µM; `O=C(O)CCc1ccc2c(c1)CCN(c1cc(OC3CCC3)ccc1F)CC2` [Compound 46, 3-(3-(5-cyclobutoxy-2-fluorophenyl)-2,3,4,5-tetrahydro-1H-benzo[d]azepin-7-yl)propanoic acid]: 0.0794 µM; `O=C(O)CCc1ccc2c(c1)CCN(c1cc(OC3CC3)ccc1F)CC2` [Compound 47, 3-(3-(5-cyclopropoxy-2-fluorophenyl)-2,3,4,5-tetrahydro-1H-benzo[d]azepin-7-yl)propanoic acid]: 0.158 µM.
Under `CC(C)Oc1ccc(F)c(N2CCc3ccc(CCC(=O)O)cc3CC2)c1` [Compound 48, 3-(3-(2-fluoro-5-isopropoxyphenyl)-2,3,4,5-tetrahydro-1H-benzo[d]azepin-7-yl)propanoic acid] stands 0.2 µM; under `CC(C)Oc1cc(F)cc(N2CCc3ccc(CCC(=O)O)cc3CC2)c1` [Compound 49, 3-(3-(3-fluoro-5-isopropoxyphenyl)-2,3,4,5-tetrahydro-1H-benzo[d]azepin-7-yl)propanoic acid], 0.398 µM; under `O=C(O)CCc1ccc2c(c1)CCN(c1cc(Oc3ccccc3)ccc1F)CC2` [Compound 50, 3-(3-(2-fluoro-5-phenoxyphenyl)-2,3,4,5-tetrahydro-1H-benzo[d]azepin-7-yl)propanoic acid], 0.0251 µM.
On to `C[C@H](Cc1ccc2c(c1)CCN(c1cc(OC(F)(F)F)ccc1F)CC2)C(=O)O` [Compound 51, (R)-3-(3-(2-fluoro-5-(trifluoromethoxy)phenyl)-2,3,4,5-tetrahydro-1H-benzo[d]azepin-7-yl)-2-methylpropanoic Acid], for which the EC50 was 0.501 µM.
Consider `O=C(O)C1CC1c1ccc2c(c1)CCN(c1cc(OC(F)(F)F)ccc1F)CC2` (centres unmarked) [Compound 52, 2-(3-(2-fluoro-5-(trifluoromethoxy)phenyl)-2,3,4,5-tetrahydro-1H-benzo[d]azepin-7-yl)cyclopropanecarboxylic Acid], for which the EC50 was 0.126 µM.
Turning to `O=C(O)C1CC1c1ccc2c(c1)CCN(c1cc(OC3CCC3)ccc1F)CC2` (centres unmarked) [Compound 53], the EC50 is 0.1 µM.
For the molecule `O=C(O)CCc1ccc2c(c1)CCCN(c1cc(OC(F)(F)F)ccc1F)C2` [Compound 54, 3-(2-(2-Fluoro-5-(trifluoromethoxy)phenyl)-2,3,4,5-tetrahydro-1H-benzo[c]azepin-7-yl)propanoic Acid], the EC50 is 0.2 µM.
